{"source": "patent US8143382B2", "about": "“Pyrazole disazo dye and ink containing the dye” (Mitsubishi Chemical Corporation, priority 2007, dated 2012)", "key": {"[1]": {"test": "Absorption spectrum and colour of the n-decane solution of the dye", "assay_type": "physicochemical", "conditions": "for Gram extinction coefficient: decane, at the absorption maximum wavelength; for Color of solution / Absorption maximum wavelength: n-decane solution; for Absorption maximum wavelength: wavelength range 350-800 nm", "method": "(§1) The dye was added to n-decane, and this mixture was subjected to an ultrasonic treatment at 30° C. and ordinary pressure. When the dye completely dissolved, an additional amount of the dye was added so that the dye partly remained undissolved. The mixture thus treated was allowed to stand at room temperature (25° C.) for 12 hours and then subjected to centrifugal filtration with a 0.1-μm filter to obtain a saturated solution of the dye. This solution was diluted to an appropriate concentration and examined for absorption spectrum.\n(§2) From values of absorption maximum wavelength in the wavelength range of 350-800 nm, gram extinction coefficient, and molar extinction coefficient which had been determined beforehand at an appropriate concentration and from the dilution ratio and the absorption spectrum of the diluted solution, the solubility (% by weight) and the product of the molar extinction coefficient at the absorption maximum wavelength and the molar concentration of the saturated solution were calculated."}, "[2]": {"test": "Solubility of the dye in n-decane (saturated solution, 25° C., ordinary pressure)", "assay_type": "physicochemical", "conditions": "for Solubility compared with the comparative compound: from Table 1; for [Molar extinction coefficient at absorption maximum wavelength] × [molar concentration of saturated solution]: saturated solution at 25° C.; for Solubility (decane): saturated solution, 25° C., ordinary pressure, 0.1-μm filter", "method": "as §1, §2"}}, "data": [{"smiles": "CCCCc1nn(C(C)(C)C)c(O)c1N=Nc1ccc(N=Nc2ccccc2)cc1", "note": "[1-1]", "values": [{"measurement": "Gram extinction coefficient", "setting": "[1]", "value": 62000, "unit": "cm^2g^−1"}, {"measurement": "Color of solution", "setting": "[1]", "value": "yellow"}, {"measurement": "Absorption maximum wavelength", "setting": "[1]", "value": 417, "unit": "nm"}, {"measurement": "Solubility compared with the comparative compound", "setting": "[2]", "value": "higher solubility than the comparative compound"}, {"measurement": "[Molar extinction coefficient at absorption maximum wavelength] × [molar concentration of saturated solution]", "setting": "[2]", "value": 1900, "unit": "cm⁻¹"}, {"measurement": "Solubility (decane)", "setting": "[2]", "value": 4.2, "unit": "wt %"}]}, {"smiles": "CCCCc1ccc(N=Nc2ccc(N=Nc3c(CCCC)nn(C(C)(C)C)c3O)cc2)cc1", "note": "[1-2]", "values": [{"measurement": "Gram extinction coefficient", "setting": "[1]", "value": 61000, "unit": "cm^2g^−1"}, {"measurement": "Color of solution", "setting": "[1]", "value": "yellow"}, {"measurement": "Absorption maximum wavelength", "setting": "[1]", "value": 421, "unit": "nm"}, {"measurement": "Solubility compared with the comparative compound", "setting": "[2]", "value": "higher solubility than the comparative compound"}, {"measurement": "[Molar extinction coefficient at absorption maximum wavelength] × [molar concentration of saturated solution]", "setting": "[2]", "value": 13000, "unit": "cm⁻¹"}, {"measurement": "Solubility (decane)", "setting": "[2]", "value": 30, "unit": "wt %"}]}, {"smiles": "CCc1nn(C(C)(C)C)c(O)c1N=Nc1ccc(N=Nc2ccccc2)cc1", "note": "[1-3]", "values": [{"measurement": "Gram extinction coefficient", "setting": "[1]", "value": 69000, "unit": "cm^2g^−1"}, {"measurement": "Color of solution", "setting": "[1]", "value": "yellow"}, {"measurement": "Absorption maximum wavelength", "setting": "[1]", "value": 415, "unit": "nm"}, {"measurement": "Solubility compared with the comparative compound", "setting": "[2]", "value": "higher solubility than the comparative compound"}, {"measurement": "[Molar extinction coefficient at absorption maximum wavelength] × [molar concentration of saturated solution]", "setting": "[2]", "value": 1400, "unit": "cm⁻¹"}, {"measurement": "Solubility (decane)", "setting": "[2]", "value": 3.1, "unit": "wt %"}]}, {"smiles": "Cc1nn(-c2ccccc2)c(O)c1N=Nc1ccc(N=Nc2ccccc2)cc1", "note": "[compound 1, reference compound]", "values": [{"measurement": "Gram extinction coefficient", "setting": "[1]", "value": 97000, "unit": "cm^2g^−1"}, {"measurement": "Color of solution", "setting": "[1]", "value": "almost no"}, {"measurement": "Absorption maximum wavelength", "setting": "[1]", "value": 416, "unit": "nm"}, {"measurement": "[Molar extinction coefficient at absorption maximum wavelength] × [molar concentration of saturated solution]", "setting": "[2]", "value": 10, "unit": "cm⁻¹"}, {"measurement": "Solubility (decane)", "setting": "[2]", "value": 0.014, "unit": "wt %"}]}]}
